Data published in patent US20230406849A1, “KRAS INHIBITORS FOR TREATMENT OF CANCERS” (TYLIGAND BIOSCIENCE (SHANGHAI) LIMITED, priority 2020, published 2023).
Like-named read-outs stand apart in the source and are kept apart here. Blank lines part the entries; values can stand above or below the compound they belong to.

What was measured:
[1] = system: human non-small cell lung cancer cells NCI-H358 with KRas G12C mutation; assay: NCI-H358 cell proliferation, CellTiter-Glo Luminescent Cell Viability Assay; format: cell-based; conditions: for inhibition at 1 µM: 1 μM compound, read-out: Inhibition rate % (1 μM)
Excerpt: This assay verified the inhibitory activity of the compounds of the present disclosure on the proliferation of human non-small cell lung cancer cells NCI-H358 with KRas G12C mutation by using Promega's CellTiter-Glo® Luminescent Cell Viability Assay kit.
[Test materials]: NCI-H358 cell line (Cell Resource Center, IBMS, CAMS/PUMC, Item number: 3111C0001CCC000470), 96-well transparent flat-bottomed black-walled cell culture plate (Greiner Bio one, Cat #655096), RPMI-1640 Medium (GE, Cat #SH30809.01), Fetal Bovine Serum FBS (Thermo Fisher, Cat #10099-141), CellTiter-Glo® Luminescent Cell Viability Assay Kit (Promega, Cat #G7573), PBS (Solarbio, Cat #P1020), Trypsin (Thermo Fisher, Cat #25200072), DMSO (Sigma, Cat #D2650), Methyl cellulose (SIGMA, Cat #9004-67-5).
[Experimental procedure]: 180 μL of cell suspension (RPMI1640 solution with 10% FBS and 1% methyl cellulose) was charged to a 96-well cell culture plate at a density of 1500 cells/well. A control group containing no cells, no compounds and only 3D complete medium (RPMI 1640 solution with 1! Methyl cellulose and 10% FBS) (i.e. culture medium control) and a control group containing no compounds but cells (i.e. cell control) were set. AMG510 or the following reference compounds were used as positive controls. The cell plate was placed in a cell incubator overnight. A 10-fold drug solution (RPMI1640 solution with 10% FBS and 1% DMSO) was prepared at a concentration of 10 μM, and 20 μL of this solution was added to each well of the 96-well plate seeded with cells, so that the final concentration of the compounds in each well was 1 μM, and the DMSO concentration […] replicate wells were set up for each compound. The solutions of AMG510 or the following reference compounds were prepared in the same way and added to the positive control wells. The cell plate was placed in a cell incubator and cultured for 120 h. For endpoint detection, the CellTiter-Glo reagent was melted, and the cell plate was moved to room temperature to equilibrate for 30 minutes, added with 100 µL of CellTiter-Glo to each well, and shaken on an orbital shaker for 5 minutes to fully lyse the cells. The plate was kept at room temperature for 20 minutes to stabilize the luminescence signal, and the luminescence value of each well was full wavelength scanned with a multi-functional microplate reader (Molecular Devices, Spectramax M3 microplate reader).
[Test samples] The compounds of Examples 1-39, and reference compound A
[Data Analysis] The following formula was used to calculate the cell inhibition rate under the action of each concentration of the compounds:
Inhibition rate %=[1−(LumDrug to be tested−LumCulture medium control)/(LumCell control−LUMCulture medium control)]×100%
IC50 values were calculated using GraphPad Prism 7.0 software, nonlinear Sigmoidal regression was used to fit the data to obtain a dose-response curve.

[2] = Cassette pharmacokinetic experiment in rats (IV); format: in vivo; conditions: rat, plasma, 1 mg/kg, male SD rats, tail vein IV, 1 mg/mL each compound at 1 mL/kg
Excerpt: 2.1 Pharmacokinetic Properties of Some Compounds of the Present Disclosure Evaluated by Cassette Pharmacokinetic Experiments in Rats.
[Test materials]: Male SD rats, age: 6-8 weeks, body weight 220-250 g, purchased from Zhaoyan (Suzhou) New Drug Research Center Co., Ltd.; Tolbutamide (Aladdin, Cat #H1401054); Sulfobutyl-(Captisol, Shandong Binzhou Zhiyuan Biological Technology Co., Ltd, Cat #20191013); Propylene glycol (15)-stearate (Solutol, Meilun Bio, Cat #50206A); DMSO (Vetec Company, Cat #WXBD0293V); acetonitrile (Sigma-Aldrich, Cat #WXBD1744V); Methanol (Sigma-Aldrich, Cat #WXBD2831V).
[Experimental procedure]: The compound combination was prepared in a solvent of 5% DMSO/10% Solutol/85% (20% Captisol), and the final concentration of each compound was 1 mg/mL. The SD rats were treated with the compound preparation in 1 mL/kg by tail vein IV injection, and blood samples were collected at the time points of 5 min, 15 min, 30 min, 1 h, 2 h, 4 h, 8 h, and 24 h via external jugular vein puncture, centrifuged at low temperature for 20 minutes to collect plasma samples, which were stored at −80° C. until analysis.
[Sample analysis]: Establishing LC-MS/MS compound analysis method
Standard curve preparation: 20 μL of lmg/mL DMSO stock solution for each compound was aspirated and transferred to […] of 50% methanol working solution, and the resulting solution was serially diluted to obtain a standard curve working solution with concentrations of 20000, 10000, 5000, 1000, 500, 100, 50, 20 and […]. Then 5 µL of this standard curve working solution was mixed with 45 μL rat blank plasma to give a standard curve with concentrations of 2000, 1000, 500, 100, 50, 10, 2 and 1 ng/mL for quantification of unknown samples.
Sample pretreatment: 50 μL of unknown plasma sample or standard curve sample was mixed with 250 μL of acetonitrile containing internal standard as a precipitant. The plasma protein was precipitated, extracted for test compounds, and centrifuged at low temperature for 20 minutes. The supernatant was taken, mixed with 0.1% formic acid aqueous solution, and 5 μL of the resulting solution was aspirated for blood concentration analysis.
[Data processing]: A standard curve was plotted using mass spectrometry software, to quantify unknown samples, and pharmacokinetic parameters are calculated by Winnonlin 8.2 using the drug concentration of unknown samples at each time point.

Structure (SMILES): C=CC(=O)N1CCN(c2c(C#N)c(N)nc3c(F)c(-c4cccc5sc(N)nc45)c(Cl)cc23)CC1 [Example 33, 4-(4-Acryloylpiperazin-1-yl)-2-amino-7-(2-aminobenzo[d]thiazol-4-yl)-6-chloro-8-fluoroquinoline-3-carbonitrile]
IC50 ([1]; read-out: IC50 value): < 0.05 µM

Structure (SMILES): C=C(F)C(=O)N1CCN(c2c(C#N)cnc3c(F)c(-c4ccc(F)c5sc(N)nc45)c(Cl)cc23)CC1 [Example 16, 7-(2-Amino-7-fluorobenzo[d]thiazol-4-yl)-6-chloro-8-fluoro-4-(4-(2-fluoroaryloxy)piperazin-1-yl)quinoline-3-carbonitrile]
AUC(0-t) [2]: 2.79 µg·h/mL | clearance [2]: 0.356 L/h/kg | half-life [2]: 3.5 h

Structure (SMILES): C=CC(=O)N1CCN(c2c(C#N)c(NC(C)=O)nc3c(F)c(-c4ccc(F)c5sc(N)nc45)c(Cl)cc23)CC1 [Example 37, N-(4-(4-acryloylpiperazin-1-yl)-7-(2-amino-7-fluorobenzo[d]thiazol-4-yl)-6-chloro-3-cyano-8-fluoroquinolin-2-yl)acetamide]
IC50 ([1]; read-out: IC50 value): < 0.05 µM

Structure (SMILES): C=CC(=O)N1CCN(c2c(C#N)c(N)nc3c(F)c(-c4ccc(F)c5sc(N)nc45)c(Cl)cc23)CC1 [Example 20, 4-(4-Acryloylpiperazin-1-yl)-2-amino-7-(2-amino-7-fluorobenzo[d]thiazol-4-yl)-6-chloro-8-fluoroquinoline-3-carbonitrile]
IC50 ([1]; read-out: IC50 value): < 0.05 µM

Structure (SMILES): C=CC(=O)N1CCN(c2c(C#N)cnc3c(OC)c(-c4ccc(F)c5sc(N)nc45)c(Cl)cc23)CC1 [Example 39, 4-(4-Acryloylpiperazin-1-yl)-7-(2-amino-7-fluorobenzo[d]thiazol-4-yl)-6-chloro-8-methoxy quinoline-3-carbonitrile]
IC50 ([1]; read-out: IC50 value): < 0.02 µM

Structure (SMILES): C=CC(=O)N1CCN(c2c(C#N)cnc3c(F)c(-c4c(C)ccc5[nH]ncc45)c(Cl)cc23)CC1 [Ref. Comp. B, reference compound]
IC50 ([1]; 120 h, read-out: IC50): 0.35 µM

Structure (SMILES): C=CC(=O)N1CCN(c2c(C#N)c(C)nc3c(F)c(-c4ccc(F)c5sc(N)nc45)c(Cl)cc23)CC1 [Example 17, 4-(4-Acryloylpiperazin-1-yl)-7-(2-amino-7-fluorobenzo[d]thiazol-4-yl)-6-chloro-8-fluoro-2-methylquinoline-3-carbonitrile]
IC50 ([1]; read-out: IC50 value): < 0.05 µM

Structure (SMILES): C=CC(=O)N1CCN(c2c(C#N)c(N)nc3c(F)c(-c4c(F)ccc5sc(N)nc45)c(Cl)cc23)CC1 [Example 34, 4-(4-Acryloylpiperazin-1-yl)-2-amino-7-(2-amino-5-fluorobenzo[d]thiazol-4-yl)-6-chloro-8-fluoroquinoline-3-carbonitrile]
IC50 ([1]; read-out: IC50 value): < 0.05 µM

Continued, in another order:

IC50 ([1]; 120 h, read-out: IC50): 0.017 µM | IC50 ([1]; read-out: IC50 value): < 0.02 µM
Structure (SMILES): C=CC(=O)N1CCN(c2c(C#N)c(-c3cccc(CN(C)C)c3)nc3c(F)c(-c4ccc(F)c5sc(N)nc45)c(Cl)cc23)C[C@H]1C [Example 6, 4-((R)-4-acryloyl-3-methylpiperazin-1-yl)-7-(2-amino-7-fluorobenzo[d]thiazol-4-yl)-6-chloro-2-(3-((dimethylamino)methyl)phenyl)-8-fluoroquinoline-3-carbonitrile]
inhibition at 1 µM ([1]; 120 h): 95%

IC50 ([1]; 120 h, read-out: IC50): 0.053 µM
Structure (SMILES): C=CC(=O)N1CCN(c2c(C#N)c(-c3ccnn3CCN(C)C)nc3c(F)c(-c4ccc(F)c5sc(N)nc45)c(Cl)cc23)CC1 [Example 4, 4-(4-Acryloylpiperazin-1-yl)-7-(2-amino-7-fluorobenzo[d]thiazol-4-yl)-6-chloro-2-(1-(2-(dimethylamino)ethyl)-1H-pyrazol-5-yl)-8-fluoroquinoline-3-carbonitrile]
inhibition at 1 µM ([1]; 120 h): 94.8%

IC50 ([1]; 120 h, read-out: IC50): 0.26 µM
Structure (SMILES): C=CC(=O)N1CCN(c2c(C#N)c(-c3ccnn3CCN(C)C)nc3c(F)c(-c4ccc(F)c5sc(N)nc45)c(Cl)cc23)C[C@H]1C [Example 7, 4-((R)-4-acryloyl-3-methylpiperazin-1-yl)-7-(2-amino-7-fluorobenzo[d]thiazol-4-yl)-6-chloro-2-(1-(2-(dimethylamino)ethyl)-1H-pyrazol-5-yl)-8-fluoroquinoline-3-carbonitrile]
inhibition at 1 µM ([1]; 120 h): 90%

AUC(0-t) [2]: 1.1 µg·h/mL | clearance [2]: 0.906 L/h/kg | half-life [2]: 1.58 h
Structure (SMILES): C=CC(=O)N1CCN(c2c(C#N)c(-c3ccnn3C)nc3c(F)c(-c4ccc(F)c5sc(N)nc45)c(Cl)cc23)CC1 [Example 14, 4-(4-Acryloylpiperazin-1-yl)-7-(2-amino-7-fluorobenzo[d]thiazol-4-yl)-6-chloro-8-fluoro-2-(1-methyl-1H-pyrazol-5-yl)quinoline-3-carbonitrile]

IC50 ([1]; 120 h, read-out: IC50): 0.007 µM | IC50 ([1]; read-out: IC50 value): < 0.02 µM
Structure (SMILES): C=CC(=O)N1CCN(c2c(C#N)c(-c3cccc(C(C)N(C)C)c3)nc3c(F)c(-c4ccc(F)c5sc(N)nc45)c(Cl)cc23)CC1 (stereo not drawn) [Example 5, 4-(4-Acryloylpiperazin-1-yl)-7-(2-amino-7-fluorobenzo[d]thiazol-4-yl)-6-chloro-2-(3-(1-(dimethylamino)ethyl)phenyl)-8-fluoroquinoline-3-carbonitrile]
inhibition at 1 µM ([1]; 120 h): 94.9%

IC50 ([1]; read-out: IC50 value): < 0.05 µM
Structure (SMILES): C=CC(=O)N1CCN(c2c(C#N)c(C)nc3c(F)c(-c4ccc(F)c5sc(N)nc45)c(Cl)cc23)C[C@@H]1CC#N [Example 32]

AUC(0-t) [2]: 1.95 µg·h/mL | clearance [2]: 0.515 L/h/kg | half-life [2]: 1.37 h
Structure (SMILES): C=CC(=O)N1CCN(c2c(C#N)c(OC)nc3c(F)c(-c4ccc(F)c5sc(N)nc45)c(Cl)cc23)CC1 [Example 13, 4-(4-Acryloylpiperazin-1-yl)-7-(2-amino-7-fluorobenzo[d]thiazol-4-yl)-6-chloro-8-fluoro-2-methoxyquinoline-3-carbonitrile]

IC50 ([1]; 120 h, read-out: IC50): 0.009 µM | IC50 ([1]; read-out: IC50 value): < 0.02 µM
Structure (SMILES): C=CC(=O)N1CCN(c2c(C#N)c(-c3cccc(CN(C)C)c3)nc3c(F)c(-c4ccc(F)c5sc(N)nc45)c(Cl)cc23)CC1 [Example 3, 4-(4-Acryloylpiperazin-1-yl)-7-(2-amino-7-fluorobenzo[d]thiazol-4-yl)-6-chloro-2-(3-((dimethylamino)methyl)phenyl)-8-fluoroquinoline-3-carbonitrile]
inhibition at 1 µM ([1]; 120 h): 97.7%

AUC(0-t) [2]: 0.717 µg·h/mL | clearance [2]: 1.4 L/h/kg | half-life [2]: 1.03 h
Structure (SMILES): C=CC(=O)N1CCN(c2c(C#N)c(-c3cn(C)nc3C)nc3c(F)c(-c4ccc(F)c5sc(N)nc45)c(Cl)cc23)CC1 [Example 15, 4-(4-Acryloylpiperazin-1-yl)-7-(2-amino-7-fluorobenzo[d]thiazol-4-yl)-6-chloro-2-(1,3-dimethyl-1H-pyrazol-4-yl)-8-fluoroquinoline-3-carbonitrile]
